Reference: patent publication EP4259152B1, “CEMTIRESTAT DISULFIDE, PRODRUG OF ALDO-KETO REDUCTASE INHIBITOR, PREPARATION, PHARMACEUTICAL COMPOSITION AND USE THEREOF” (Centrum Experimentálnej Medicíny SAV, v.v.i., priority 2020, dated 2022)
Like-named read-outs stand apart in the source and are kept apart here.

Experiments:
AKR1B10 [1] = molecular target: T1, AKR1B10 (Homo sapiens, UniProt O60218); conditions: Stefek et al.; J. Med Chem. 58: 2649-57, 2015; cited from earlier work
AKR1B10 [2] = molecular target: T1, AKR1B10; assay: Inhibition of aldo-keto reductase AKR1B10; assay type: biochemical; conditions: meaning of 'does not interact per se'
[3] = Test A: Reduction of disulfide of formula I by GSH (cleavage kinetics to form cemtirestat of formula II, absorbance at 302 nm); assay type: physicochemical; conditions: mean ± SD, n=3; for Final degree of disulfide of formula I reduction: calculated after reaching the maximum in the 60th second, disulfide 50 µM, pH 7.4, 37 °C; for Initial rate of cemtirestat of formula II formation: disulfide of formula I 50 µM, 20 mM phosphate buffer (pH 7.4) at 37 °C
[4] = Test C: Determination of the distribution ratio in the buffer/octan-1-ol system (shake-flask method); assay type: physicochemical; conditions: for D (distribution ratio in the buffer/octan-1-ol system): 100 µM, room temperature, mean ± SD, n=3
Experimental: The partition ratio in the buffer/1-octanol system (system name octan-1-ol), defined as the equilibrium ratio of the total solute concentration in the organic phase to the total solute concentration in the aqueous phase, was determined by the shake-flask method at room temperature. Octan-1-ol saturated with the desired buffer was used as the organic phase for the determination. […] The aqueous solution was shaken with octan-1-ol (20 mL) for 3 hours. Subsequently, the phases were separated in a separatory funnel and the concentration of the solute was determined spectrophotometrically in both phases by means of a calibration curve.

AKR1B1 = AKR1B1 (Homo sapiens, UniProt P15121); assay: Inhibition of aldo-keto reductase AKR1B1; assay type: biochemical
ALR2 = molecular target: T2, ALR2 (Rattus norvegicus, UniProt P07943); assay: Test B: Inhibition of ALR2 by disulfide of formula I in the presence of GSH (NADPH consumption at 340 nm); assay type: biochemical; conditions: disulfide of formula I 100 µM, 67 mM phosphate buffer (pH 7.4), 37 °C, measured 2 min after GSH addition
T2 construct: The ALR2 enzyme from rat lenses was isolated by the method of Hayman and Kinoshit; from tissue; host or cells: rat eye lenses
Experimental: Preparation ofALR2. The ALR2 enzyme from rat lenses was isolated by the method of Hayman and Kinoshit (J. Biol. Chem. 240: 877-882, 1965). The homogenate was centrifuged at 10,000 g at 0-4 °C for 20 min. The supernatant was precipitated with saturated ammonium sulfate solution gradually at 40 %, 50 % and finally at 75 % saturation. After the first two precipitations, the supernatant was used. The sediment from the last step, containing ALR2 activity, was resuspended in 75% ammonium sulfate and stored in smaller aliquots in a liquid nitrogen container.
Enzyme test. ALR2 activity was measured spectrophotometrically (Stefek et al.; Bioorg. Med Chem. 16: 4908-4920, 2008) by determining NADPH consumption at 340 nm and expressed as a decrease in optical density (O.D.) / s / mg protein. The reaction mixture contained 4.67 mM D,L-glyceraldehyde as substrate, 0.11 mM NADPH in 67 mM phosphate buffer (pH 7.4), GSH at the desired concentration and 0.05 ml of enzyme preparation a total volume of 1.5 ml. The reference (blank) sample contained all of the above components except D,L-glyceraldehyde substrate and was used to correct for NADPH oxidation unrelated to substrate reduction. Enzyme catalysis was initiated by the addition of D,L-glyceraldehyde and the reaction was monitored for 4 minutes after an initial 1 minute period at 37 °C. The enzyme activity was adjusted by diluting the enzyme preparations with distilled water so that 0.05 ml of the preparation gave an average reaction rate for the control samples in the range of 0.020 ± 0.005 absorbance units / min. The effect of inhibitor on enzyme activity was determined by adding a stock solution of inhibitor in DMSO to the reaction mixture at a final concentration of 100 µM so that the final DMSO concentration was 1%. An inhibitor with the same concentration was added to the reference sample. Enzyme activity was started 2 min after the addition of GSH to the reaction mixture by adding D,L-glyceraldehyde used as a substrate, and I(%) values were determined from the measured absorbance decrease values.

T1 sequence (O60218 whole entry, species assumed): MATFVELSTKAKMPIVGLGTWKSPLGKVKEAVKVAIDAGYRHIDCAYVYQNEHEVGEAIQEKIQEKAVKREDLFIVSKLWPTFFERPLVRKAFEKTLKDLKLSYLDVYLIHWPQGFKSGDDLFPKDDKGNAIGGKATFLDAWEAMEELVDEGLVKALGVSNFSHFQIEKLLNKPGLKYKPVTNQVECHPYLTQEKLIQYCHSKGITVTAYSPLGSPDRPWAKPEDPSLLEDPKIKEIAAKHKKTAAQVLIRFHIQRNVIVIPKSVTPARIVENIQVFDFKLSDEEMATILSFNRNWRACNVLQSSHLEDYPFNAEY

IC50 (AKR1B10 [2]) [µM] | Final degree of disulfide of formula I reduction ([3]; GSH 25 µM) [%] | Final degree of disulfide of formula I reduction ([3]; GSH 50 µM) [%] | Final degree of disulfide of formula I reduction ([3]; GSH 100 µM) [%] | water/octanol distribution ratio compared to cemtirestat of formula II ([4]; acidic environment at pH 4.6, fold higher than cemtirestat of formula II) [fold] | D (distribution ratio in the buffer/octan-1-ol system) ([4]; pH 4.6, acetate buffer (0.1M) + 0.15 M KCl) | D (distribution ratio in the buffer/octan-1-ol system) ([4]; pH 7.4, phosphate buffer (0.1M) + 0.15 M KCl) | IC50 (AKR1B1) [µM] | inhibition at 100 µM (ALR2; pH 7.4, GSH added 0 µM) [%] | inhibition at 100 µM (ALR2; pH 7.4, GSH added 5 µM) [%] | inhibition at 100 µM (ALR2; pH 7.4, GSH added 10 µM) [%] | inhibition at 100 µM (ALR2; pH 7.4, GSH added 20 µM) [%] | inhibition at 100 µM (ALR2; pH 7.4, GSH added 40 µM) [%] | inhibition at 100 µM (ALR2; pH 7.4, GSH added 100 µM) [%] | inhibition at 100 µM (ALR2; pH 7.4, GSH added 1000 µM) [%] | inhibition at 100 µM (ALR2; pH 7.4, GSH added 5000 µM) [%] | SMILES | IC50 (AKR1B10 [1]) [µM] | Initial rate of cemtirestat of formula II formation ([3]; GSH 25 µM) [nmol/mL/s] | Initial rate of cemtirestat of formula II formation ([3]; GSH 50 µM) [nmol/mL/s] | Initial rate of cemtirestat of formula II formation ([3]; GSH 100 µM) [nmol/mL/s]
– | – | – | – | – | – | – | – | – | – | – | – | – | – | – | – | O=C(O)Cn1c2ccccc2c2nnc(S)nc21 [Cemtirestat of formula II, 2-(3-thioxo-2,3-dihydro-5H-[1,2,4]triazino[5,6-b]indol-5-yl)acetic acid] | 3.69 ± 0.53 | – | – | –
> 100 | 39.68 ± 1.59 | 67.70 ± 3.72 | 85.16 ± 5.11 | ~4 | 0.1136 ± 0.0022 | 0.0095 ± 0.0019 | > 100 | < 1 | < 1 | 8.9 ± 0.6 | 12.4 ± 1.4 | 16.1 ± 6.9 | 72.6 ± 9.1 | 94 ± 1.6 | 91.1 ± 1.5 | O=C(O)Cn1c2ccccc2c2nnc(SSc3nnc4c5ccccc5n(CC(=O)O)c4n3)nc21 [Disulfide of formula I, 2,2'-(disulfanediylbis(5H-[1,2,4]triazino[5,6-b]indole-3,5-diyl))diacetic acid] | – | 4.46 ± 1.68 | 7.30 ± 1.46 | 9.83 ± 2.09
